Results from US20240374735A1, “AROMATIC BORON-CONTAINING COMPOUNDS AND INSULIN ANALOGS” (PROTOMER TECHNOLOGIES INC., priority 2020, published 2024).

Test system: diabetic B6 mice (streptozocin)
Assay: Glucose challenge in STZ diabetic mice
Type: in vivo
Settings: injected subcutaneously or intraperitoneally, glucose challenge one hour post-injection
Procedure: Diabetes was induced in 12-week-old B6 mice using streptozocin (STZ) treatment. Three weeks after the final STZ treatment, blood glucose of the mice was sampled from lateral tail vein to confirm diabetes. Mice with blood glucose of >200 mg/dl were deemed to be diabetic and fasted for 1-6 hours prior to injection. Human insulin and a compound of Formula I in sterile phosphate buffered saline, pH 7.4 were injected either subcutaneously via neck scruff or intraperitoneally, depending on the experiment. Blood glucose was sampled with a glucometer via lateral tail vein at 15-minute intervals. After one hour of initial stabilization of blood glucose levels post-insulin injection, mice were challenged with an intraperitoneal injection of glucose (e.g., 2 g/kg, 4 g/kg, or 6 g/kg; the actual dose depends on the example and experiment) in sterile phosphate buffered saline.

Substance: human insulin: Human insulin, comparator in the mouse experiments; biosynthetic human insulin (BHI) in the clamp
- Blood glucose response after intraperitoneal glucose bolus: did not activate in a glucose-dependent manner
